System: HPB-ALL cells
Assay: Inhibition of CD95-independent apoptosis induced by anti-CXCR4 antibody (12G5) in HPB-ALL cells
Type: cell-based
Details: HPB-ALL cells incubated with 250 nM SDF-1α at 37° C. for 30 minutes, then induction with anti-CXCR4 antibody 12G5
Description: 1×10^5 HPB-ALL cells are incubated with 5 μg/ml mouse anti-CD4 antibody (HP2/6) and mouse anti CXCR4 antibody (12G5), respectively, at 37° C. for 15 minutes. Then, the bound antibodies are reacted with sheep anti-mouse antibodies (100 μg/ml, Boehringer). Apoptosis detection is carried out in which an FSC/SSC analysis is run in an FACScan cytometer at various times (cf. FIG. 1). HPB-ALL cells are incubated with 250 nM SDF-1α at 37° C. for 30 minutes. The cells are then subjected to an apoptosis induction using the mouse anti-CXCR4 antibody (12G5), as described above under item I. (a).

## SDF-1α
  Prevention of induction of CD95-independent apoptosis: can be prevented
